The text below walks through data of EP1566447A1, “Glimepiride- and insulin-induced glycosylphosphatidylinositol-specific phospholipase C regulation” (priority 2004, dated 2005).

Entries after “also recorded” stand apart in the source; their conditions may differ.

What is called IC50 is the concentration that gives 50% inhibition.

One experiment relates to Isolated rat adipocytes. Put plainly: glimepiride-induced redistribution of signaling proteins within DIGs. As to conditions: max. effective conc. (50 µM). In kind it is cell-based.
Another experiment deals with rat liver PI-PLC. Put plainly: selectivity: mammalian PI-PLC assay. The format is biochemical. As to conditions: 50 µM. The method, then: (§1) Hormone-sensitive lipase (HSL) and lipoprotein lipase (LPL) were measured using a radiolabeled triolein droplet emulsion as described in "Vertesy et al., (2002) Journal Antibiotics 55:480-494". Pancreatic lipase (PL) was determined by incubation of 0.25 mmol tributyrin in 2 ml of 5 mM Tris/HCl (pH 6.5), 6 mM sodium taurodeoxycholate, 150 mM NaCl, 1 mM CaCl2 with porcine PL and colipase in the same buffer using a recording pH stat (stirring at 1000 rpm at 25°C) with the pH adjusted to 6.5. PC-PLC was assayed by incubation of 0.2 ml of 10 mM dipalmitoyllecithin, 0.1 ml of 10 mM SDC and 0.1 ml of 0.03 M CaCl2 with bacterial PC-PLC (in 50 mM Tris/HCl, pH 7.5, 0.1 % BSA) for 10 min at 37°C. The reaction was terminated by addition of 0.1 ml of 50 % TCA and subsequently of 2.5 ml of […]. After centrifugation (1500xg, 15 min), 0.2-ml portions of the upper methanol/water phase (~ 1.33 ml) was removed, supplemented with 0.5 ml of 60 % HClO4, then heated at 170°C for 1 h and finally analyzed for inorganic phosphate. Mammalian PI-PLC was measured by incubation of 0.1 ml of 10 mM PI, 0.1 ml of 0.8 % sodium deoxycholate, 0.1 % BSA, 0.2 ml of 100 mM sodium borate (pH 7.5) and rat liver PI-PLC for 20 min at 37°C. The reaction was terminated and further processed as described for the PC-PLC. […] Radioactive phosphatidic acid was detected by phosphorimaging. […]

The next experiment concerns GPI-PLC. Conditions: read-out: IC50 for inhibition of the GPI-PLC; isolated intact hcDIGs; Fig. 4 Panels B, D.
The target of a further experiment is T1, Pancreatic lipase (PL) (Sus scrofa, UniProt P00591).
T1 construct: crude porcine pancreatic lipase (PL); purchased Sigma/Aldrich (Deisenhofen, Germany); host or cells: porcine pancreas (crude preparation)
T1 sequence (P00591 1-450): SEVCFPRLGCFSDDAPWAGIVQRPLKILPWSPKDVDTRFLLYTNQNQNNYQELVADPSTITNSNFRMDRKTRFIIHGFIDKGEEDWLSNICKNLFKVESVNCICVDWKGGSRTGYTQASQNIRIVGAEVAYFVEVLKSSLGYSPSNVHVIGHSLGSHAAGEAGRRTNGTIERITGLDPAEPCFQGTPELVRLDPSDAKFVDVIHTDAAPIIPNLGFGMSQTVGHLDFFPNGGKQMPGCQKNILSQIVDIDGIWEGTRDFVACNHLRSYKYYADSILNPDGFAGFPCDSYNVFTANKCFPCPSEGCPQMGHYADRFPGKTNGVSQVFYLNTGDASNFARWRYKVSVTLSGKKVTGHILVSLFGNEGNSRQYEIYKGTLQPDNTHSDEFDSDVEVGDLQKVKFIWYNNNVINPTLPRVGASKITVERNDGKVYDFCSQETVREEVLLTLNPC
T1 sequence (P02703 23-112 partner): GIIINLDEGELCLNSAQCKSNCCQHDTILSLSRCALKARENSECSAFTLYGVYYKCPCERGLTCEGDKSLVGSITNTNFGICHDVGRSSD
Put plainly: selectivity: pancreatic lipase assay. The format is biochemical, porcine. Conditions: 50 µM. The procedure:
as §1

Regarding `CCCCCCCCCCCCP1(=O)O[C@@H]2[C@H](O)[C@@H](O)[C@H](O)[C@@H](O)[C@@H]2O1` (mixture of isomers) [GPI-2350, myo-inositol-1,2-cyclo-dodecylphosphonic acid], the “effect on glimepiride-induced redistribution from hcDIGs to IcDIGs” value in the experiment with Isolated rat adipocytes was “almost complete blockade; also recorded: almost completely abolished”. In addition, in the experiment with rat liver PI-PLC, the “effect on phospholipase activity” value is listed as “not significantly affected”. Moreover, in the experiment with GPI-PLC, the IC50 worked out at 1000 nM. Besides, the “effect on lipase activity” value at Pancreatic lipase (PL) is on record as “not significantly affected”.
